Some results are limits rather than exact numbers.

Sequence of Cytochrome P450 2C9 (P11712 whole entry): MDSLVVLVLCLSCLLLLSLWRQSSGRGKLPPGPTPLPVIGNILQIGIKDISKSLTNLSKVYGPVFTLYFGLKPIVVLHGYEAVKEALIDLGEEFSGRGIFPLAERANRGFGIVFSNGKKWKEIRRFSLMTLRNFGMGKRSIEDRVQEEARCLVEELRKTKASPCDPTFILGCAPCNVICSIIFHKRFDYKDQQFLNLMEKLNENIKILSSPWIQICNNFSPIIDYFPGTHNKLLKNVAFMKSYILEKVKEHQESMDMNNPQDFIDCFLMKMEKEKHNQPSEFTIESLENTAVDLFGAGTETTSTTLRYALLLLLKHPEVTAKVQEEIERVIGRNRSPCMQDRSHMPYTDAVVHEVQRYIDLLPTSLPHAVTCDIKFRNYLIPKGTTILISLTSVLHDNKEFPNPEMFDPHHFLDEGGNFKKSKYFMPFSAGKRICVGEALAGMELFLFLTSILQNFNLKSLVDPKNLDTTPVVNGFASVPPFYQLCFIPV

This experiment has as its target Cytochrome P450 2C9 (Homo sapiens, UniProt P11712). The experiment in a line: Inhibition of recombinant CYP2C9 by fluorescence inhibition assay. The experiment is classed as ADME.
In general, IC50 refers to the concentration needed to halve the response being measured. Take `Cc1ccc(-c2cc(C(F)(F)F)nn2-c2ccc([S+](C)[O-])cc2)cc1` (centres undefined): the IC50 stood at 26 µM.
Under `Cc1ccc(-c2cc(C(F)(F)F)nn2-c2ccc(C)cc2)cc1` stands over 40 µM.
With `O=C(O)Cc1ccc(-n2nc(C(F)(F)F)cc2-c2ccc(C(F)(F)F)cc2)cc1`, the IC50 came out at 25 µM.
Regarding `CCOC(=O)c1ccc(-n2nc(C(F)(F)F)cc2-c2ccc(C)cc2)cc1`, the IC50 is over 40 µM.
For `Cc1ccc(-c2cc(C(F)(F)F)nn2-c2ccc(C(=O)O)cc2)cc1`, the half-maximal inhibitory concentration (IC50) was over 40 µM.
Turning to `Cc1ccc(-c2cc(C(F)(F)F)nn2-c2ccc(S(C)(=O)=O)cc2)cc1`, the 50% inhibitory concentration (IC50) worked out at 16 µM.
Take `Cc1ccc(-c2cc(C(F)(F)F)nn2-c2ccc(CC(=O)O)cc2)cc1`: the IC50 was over 40 µM.
Regarding `CCOC(=O)c1ccc(-n2nc(C(F)(F)F)cc2-c2ccc(C(F)(F)F)cc2)cc1`, the IC50 was over 40 µM.
Turning to `CSc1ccc(-n2nc(C(F)(F)F)cc2-c2ccc(C)cc2)cc1`, the IC50 is over 40 µM.
For `O=C(O)c1ccc(-n2nc(C(F)(F)F)cc2-c2ccc(C(F)(F)F)cc2)cc1`, the IC50 was over 40 µM.
As for `NS(=O)(=O)c1ccc(-n2nc(C(F)(F)F)cc2-c2ccc(C(F)(F)F)cc2)cc1`, the IC50 came to 17 µM.
Take `Cc1ccc(-c2cc(C(F)(F)F)nn2-c2ccc(S(N)(=O)=O)cc2)cc1` [CELECOXIB]: the IC50 came to 10 µM.
For `Cc1ccc(-c2cc(C(=O)O)nn2-c2ccc(S(N)(=O)=O)cc2)cc1`, the IC50 is over 40 µM.
As for `Cc1ccc(-c2cc(-c3ccccc3)nn2-c2ccc(S(N)(=O)=O)cc2)cc1`, the IC50 was determined as 16 µM.

(Values after ChEMBL document CHEMBL1137572, “CYP2C9 structure-metabolism relationships: substrates, inhibitors, and metabolites” (J Med Chem, 2007).)
